Entries after “also recorded” stand apart in the source; their conditions may differ.
Assays:
ROS = ROS labeling by cytometry after H2O2; format: cell-based; settings: Homo sapiens, ARPE-19; for inhibition at 1 µM: 1 μM compound then 200 μM H2O2 for 2 h, read-out: C. ROS inhibition 1 μM - ARPE-19 cells; for inhibition at 5 µM: 5 μM compound then 200 μM H2O2 for 2 h, read-out: B. ROS inhibition 5 μM - ARPE-19 cells
Description: ARPE-19 cells were treated with MCK349 30 minutes then with 200 μM H2O2 for 2 h. 10 μM DCF-DA (2′,7′-Dichlorofluorescein diacetate) were added on cell media for 30 min. Cells were rinsed then detached (trypsin) and resuspended in PBS 0.5% BSA and 2 mM EDTA. The cells are analyzed by cytometry (ROS labeled with DCFDA-FITC).
(§1) All compounds were evaluated in different experiments. Results are represented as the mean of three independent experiments. A. ARPE-19 cells were treated with dose response of compound for 48 h. Values are reported as IC50 measured with the XTT assay. B and C. ARPE-19 cells were treated with 5 μM (B) or 1 μM (C) compound then with 200 μM H2O2 for 2 h. ROS were analyzed by cytometry. […] As illustrated in FIG. 1A. D. ARPE-19 cells were treated with 2.5 μM compound for 48 h and the level of CXCL1 mRNA was evaluated by qPCR. […] As illustrated in FIG. 1B. E. TIME cells were pre-treated with 2.5 μM compound for 1 h then stimulated with 100 ng/ml CXCL8 for 15 min p-ERK levels were analyzed by immunoblotting. HSP90 served as loading control. […] As illustrated in FIG. 1C.

[1] = tested on: ocular (retinal) neo-angiogenesis; test: Hypoxia-induced retinal neo-angiogenesis in zebrafish; format: in vivo; settings: hypoxia 5% oxygen 72 h, 0.25, 0.5, or 1 μM
Description: All animal experiments were approved by the Experimental Animal Ethical Committee. Transgenic zebrafish embryos (fli: EGFP, blood vessels marked in GFP) were raised at 28° C. under standard experimental conditions. Zebrafish embryos at the age of 24 hpf were incubated in aquarium water containing 0.2 mmol/L 1-phenyl-2-thio-urea (PTU, Sigma). At 48-hpf, zebrafish embryos were placed for 72 h in normoxia (Nx) or hypoxia 5% oxygen […], in the presence of treatment. Retinal neo-angiogenesis was analyzed by fluorescent confocal microscope and quantified by ImageJ.

ARPE-19 cells = test: Cell viability (XTT assay); format: cell-based; settings: Homo sapiens, 48 h, read-out: A. Safety IC50 on ARPE-19 cells
Description: ARPE-19 cells were incubated in a 96-well plate with different effectors for 48 hours. Fifty microliters of sodium 3′-[1-phenylaminocarbonyl)-3,4-tetrazolium]-bis(4-methoxy-6-nitro) benzene sulfonic acid hydrate (XTT) reagent was added to each well. The test is based on the cleavage of the yellow tetrazolium salt XTT to form an orange formazan dye by metabolically active cells. This bio-reduction occurs in viable cells only and is associated with NAD(P)H production through glycolysis. Therefore, the amount of formazan dye measured at 490 nm, correlates directly with the number of metabolically active cells reflecting cell proliferation, viability, and cytotoxicity. Each assay was performed in quadruplicate.
as §1

ERK activation (p-ERK) = test: p-ERK immunoblotting after CXCL8 stimulation; format: cell-based; settings: 2.5 μM compound 1 h then 100 ng/ml CXCL8 for 15 min; read-out: E. p-ERK inhibition - TIME
Description: Cells were lysed in buffer containing 3% SDS, 10% glycerol and 0.825 mM Na2HPO4. 30 to 50 μg of proteins separated on 10% SDS-PAGE, transferred onto a PVDF membrane and then exposed to the appropriate antibodies. Proteins were visualized with the ECL system using horseradish peroxidase-conjugated anti-rabbit or anti-mouse antibodies.
as §1

Q: How did the inhibition at 1 µM (ROS) turn out when `CC(C)c1ccc(Cn2nc(Nc3ccccc3)nc2N)cc1` [MCK263, 1-(4-isopropylbenzyl)-N^3-phenyl-1H-1,2,4-triazole-3,5-diamine] was run?
A: ≥ 50%

Q: What about the inhibition at 5 µM (ROS) of the same compound?
A: ≥ 50%

Q: And the “ocular (retinal) neo-angiogenesis in zebrafish” value [1]?
A: inhibit ocular (retinal) neo-angiogenesis; also recorded: inhibit ocular neoangiogenesis

Q: And the IC50 (ARPE-19 cells)?
A: > 25 µM

Q: What about the inhibition at 2.5 µM (ERK activation (p-ERK)) of the same compound?
A: ≥ 50%

Q: `Nc1nc(Nc2ccccn2)nn1CC(=O)c1cccc([N+](=O)[O-])c1` [MCK295, 2-(5-amino-3-(pyridin-2-ylamino)-1H-1,2,4-triazol-1-yl)-1-(3-nitrophenyl)ethan-1-one] was tested. Which inhibition at 1 µM (ROS) did it give?
A: < 50%

Q: And the inhibition at 5 µM (ROS)?
A: < 50%

Q: What about the IC50 (ARPE-19 cells) of the same compound?
A: > 25 µM

Q: What about the inhibition at 2.5 µM (ERK activation (p-ERK)) of the same compound?
A: ≥ 50%

Q: Which results are given for `Nc1nc(Nc2ccccc2)nn1Cc1ccccc1[N+](=O)[O-]` [MCK297, 1-(2-nitrobenzyl)-N^3-phenyl-1H-1,2,4-triazole-3,5-diamine]?
A: inhibition at 1 µM (ROS): < 50%; inhibition at 5 µM (ROS): < 50%; IC50 (ARPE-19 cells): > 25 µM; inhibition at 2.5 µM (ERK activation (p-ERK)): ≥ 50%

Q: What does the source list for `COc1cc(Cn2nc(Nc3ccccc3)nc2N)cc(OC)c1OC` [MCK298, N^3-phenyl-1-(3,4,5-trimethoxybenzyl)-1H-1,2,4-triazole-3,5-diamine]?
A: inhibition at 1 µM (ROS): < 50%; inhibition at 5 µM (ROS): < 50%; IC50 (ARPE-19 cells): > 25 µM; inhibition at 2.5 µM (ERK activation (p-ERK)): ≥ 50%

Q: What does the source list for `Nc1nc(Nc2ccccc2)nn1CC(=O)c1ccccc1` [MCK299, 2-(5-amino-3-(phenylamino)-1H-1,2,4-triazol-1-yl)-1-phenylethan-1-one]?
A: inhibition at 1 µM (ROS): < 50%; inhibition at 5 µM (ROS): < 50%; IC50 (ARPE-19 cells): > 25 µM; inhibition at 2.5 µM (ERK activation (p-ERK)): ≥ 50%

Q: Which inhibition at 1 µM (ROS) does the source give for `Nc1nc(Nc2ccccc2)n(CCc2ccccc2)n1` [MCK300, 1-phenethyl-N^5-phenyl-1H-1,2,4-triazole-3,5-diamine] here?
A: < 50%

Q: What about the inhibition at 5 µM (ROS) of the same compound?
A: < 50%

Q: And the IC50 (ARPE-19 cells)?
A: > 25 µM

Q: And the inhibition at 2.5 µM (ERK activation (p-ERK))?
A: ≥ 50%

Q: `Nc1nc(Nc2ccccc2)nn1CCc1ccccc1` [MCK301, 1-phenethyl-N^3-phenyl-1H-1,2,4-triazole-3,5-diamine] was tested. Which inhibition at 1 µM (ROS) did it give?
A: < 50%

Q: And the inhibition at 5 µM (ROS)?
A: < 50%

Q: And the IC50 (ARPE-19 cells)?
A: > 25 µM

Q: And the inhibition at 2.5 µM (ERK activation (p-ERK))?
A: < 50%

Q: Which results are given for `Nc1nc(Nc2ccccc2)n(Cc2cccc(C(F)(F)F)c2)n1` [MCK338, N^5-phenyl-1-(3-(trifluoromethyl)benzyl)-1H-1,2,4-triazole-3,5-diamine]?
A: inhibition at 1 µM (ROS): ≥ 50%; inhibition at 5 µM (ROS): ≥ 50%; IC50 (ARPE-19 cells): > 25 µM; inhibition at 2.5 µM (ERK activation (p-ERK)): < 50%

Q: `Nc1nc(Nc2ccccc2)n(Cc2cccc(Br)c2)n1` [MCK339, 1-(3-bromobenzyl)-N^5-phenyl-1H-1,2,4-triazole-3,5-diamine] was tested. Which inhibition at 1 µM (ROS) did it give?
A: < 50%

Q: What about the inhibition at 5 µM (ROS) of the same compound?
A: ≥ 50%

Q: What about the IC50 (ARPE-19 cells) of the same compound?
A: > 25 µM

Q: And the inhibition at 2.5 µM (ERK activation (p-ERK))?
A: < 50%

Q: What does the source list for `COc1ccc(Nc2nc(N)n(Cc3cccc(Br)c3)n2)cc1` [MCK340, 1-(3-bromobenzyl)-N^3-(4-methoxyphenyl)-1H-1,2,4-triazole-3,5-diamine]?
A: inhibition at 1 µM (ROS): < 50%; inhibition at 5 µM (ROS): < 50%; IC50 (ARPE-19 cells): > 25 µM; inhibition at 2.5 µM (ERK activation (p-ERK)): < 50%

Q: `Cc1ccc(Nc2nc(N)nn2Cc2cccc(Br)c2)cc1` [MCK341, 1-(3-bromobenzyl)-N^5-(4-methylphenyl)-1H-1,2,4-triazole-3,5-diamine] was tested. Which inhibition at 1 µM (ROS) did it give?
A: ≥ 50%

Q: And the inhibition at 5 µM (ROS)?
A: ≥ 50%

Q: What about the IC50 (ARPE-19 cells) of the same compound?
A: > 25 µM

Q: And the inhibition at 2.5 µM (ERK activation (p-ERK))?
A: < 50%

Q: Which results are given for `Nc1nc(Nc2ccc(Cl)cc2)n(Cc2cccc(Br)c2)n1` [MCK343, 1-(3-bromobenzyl)-N^5-(4-chlorophenyl)-1H-1,2,4-triazole-3,5-diamine]?
A: inhibition at 1 µM (ROS): < 50%; inhibition at 5 µM (ROS): ≥ 50%; IC50 (ARPE-19 cells): > 25 µM; inhibition at 2.5 µM (ERK activation (p-ERK)): ≥ 50%

Q: `Nc1nc(Nc2ccc(Cl)cc2)nn1Cc1cccc(Br)c1` [MCK344, 1-(3-bromobenzyl)-N^3-(4-chlorophenyl)-1H-1,2,4-triazole-3,5-diamine] was tested. Which inhibition at 1 µM (ROS) did it give?
A: ≥ 50%

Q: And the inhibition at 5 µM (ROS)?
A: ≥ 50%

Q: And the “ocular (retinal) neo-angiogenesis in zebrafish” value [1]?
A: inhibit ocular (retinal) neo-angiogenesis; also recorded: inhibit ocular neoangiogenesis

Q: And the IC50 (ARPE-19 cells)?
A: > 25 µM

Q: And the inhibition at 2.5 µM (ERK activation (p-ERK))?
A: ≥ 50%

Q: Which results are given for `Nc1nc(Nc2ccc(Br)cc2)n(Cc2cccc(Br)c2)n1` [MCK345, 1-(3-bromobenzyl)-N^5-(4-bromophenyl)-1H-1,2,4-triazole-3,5-diamine]?
A: inhibition at 1 µM (ROS): ≥ 50%; inhibition at 5 µM (ROS): ≥ 50%; IC50 (ARPE-19 cells): > 25 µM; inhibition at 2.5 µM (ERK activation (p-ERK)): ≥ 50%

Q: How did the inhibition at 1 µM (ROS) turn out when `Nc1nc(Nc2ccc(Br)cc2)nn1Cc1cccc(Br)c1` [MCK346, 1-(3-bromobenzyl)-N^3-(4-bromophenyl)-1H-1,2,4-triazole-3,5-diamine] was run?
A: ≥ 50%

Q: What about the inhibition at 5 µM (ROS) of the same compound?
A: ≥ 50%

Q: And the IC50 (ARPE-19 cells)?
A: > 25 µM

Q: And the inhibition at 2.5 µM (ERK activation (p-ERK))?
A: ≥ 50%

Q: `COC(=O)c1ccc(Nc2nc(N)nn2Cc2cccc(Br)c2)cc1` [MCK347, methyl-4-((3-amino-1-(3-bromobenzyl)-1H-1,2,4-triazol-5-yl)amino)benzoate] was tested. Which inhibition at 1 µM (ROS) did it give?
A: < 50%

Q: What about the inhibition at 5 µM (ROS) of the same compound?
A: < 50%

Q: And the IC50 (ARPE-19 cells)?
A: > 25 µM

Q: What about the inhibition at 2.5 µM (ERK activation (p-ERK)) of the same compound?
A: ≥ 50%

Q: How did the inhibition at 1 µM (ROS) turn out when `COC(=O)c1ccc(Nc2nc(N)n(Cc3cccc(Br)c3)n2)cc1` [MCK348, methyl-4-((5-amino-1-(3-bromobenzyl)-1H-1,2,4-triazol-3-yl)amino)benzoate] was run?
A: ≥ 50%

Q: And the inhibition at 5 µM (ROS)?
A: ≥ 50%

Q: What about the IC50 (ARPE-19 cells) of the same compound?
A: > 25 µM

Q: And the inhibition at 2.5 µM (ERK activation (p-ERK))?
A: ≥ 50%

Q: For `CC(C)c1ccc(Cn2nc(Nc3ccc(Cl)c(Cl)c3)nc2N)cc1` [MCK350, N^3-(3,4-dichlorophenyl)-1-(4-isopropylbenzyl)-1H-1,2,4-triazole-3,5-diamine], which inhibition at 1 µM (ROS) is on record?
A: ≥ 50%

Q: And the inhibition at 5 µM (ROS)?
A: ≥ 50%

Q: What about the IC50 (ARPE-19 cells) of the same compound?
A: > 25 µM

Q: And the inhibition at 2.5 µM (ERK activation (p-ERK))?
A: ≥ 50%

Q: Which results are given for `Nc1nc(Nc2cccnc2)nn1Cc1cccc(Br)c1` [MCK351, 1-(3-bromobenzyl)-N^3-(pyridin-3-yl)-1H-1,2,4-triazole-3,5-diamine]?
A: inhibition at 1 µM (ROS): < 50%; inhibition at 5 µM (ROS): < 50%; IC50 (ARPE-19 cells): > 25 µM; inhibition at 2.5 µM (ERK activation (p-ERK)): ≥ 50%

From US20260284014A1, “3,5-DIAMINOTRIAZOLE DERIVATIVES AND USES THEREOF FOR TREATING OCULAR DISEASES” (CENTRE NATIONAL DE LA RECHERCHE SCIENTIFIQUE, priority 2023, published 2026)
